Values after ≈ are worked out from the molar mass of the structure shown. Read-outs that look alike come from different tables or passages of the source.
Tested on: R. oryzae
Assay: Deferasirox susceptibility testing (MIC/MFC), R. oryzae isolates
Assay type: cell-based, Rhizopus oryzae
Settings: Rhizopus arrhizus; for MIC90: R. oryzae MIC90/MFC90
Procedure: Minimum inhibitory concentration (MIC) and minimum fungicidal concentration (MFC) were determined for deferasirox by the method of Espinel-Ingroff using R. oryzae spores starved for iron (Espinel-Ingroff, (2001), supra). Cidality was defined as a <4-fold difference between MIC and MFC.
We next determined the deferasirox susceptibilities of multiple clinical isolates of Mucorales (Table 3). The MIC9OS of deferasirox against Mucor, non-oryzae Rhizopus spp., and R. oryzae were 3.12 to 6.25 μg/ml. MFCs were similar to MICs, and deferasirox was cidal for 28/29 (97%) of isolates. Of note, slight growth was seen within the first twelve hours even at extremely high concentrations of deferasirox. […] Furthermore, the MICs and MFCs of deferasirox against these isolates were well below clinically achievable peak (˜38 μg/ml) and trough serum levels (˜17 μg/ml) of the drug at steady state when administered at the FDA-approved starting dose (20 mg/kg/d).

[1] = NRRL6059, 24 h, R. oryzae type I NRRL 6059, 24 h
[2] = NRRL6059, 48 h, R. oryzae type I NRRL 6059, 48 h
[3] = NRRL21409, 48 h, R. oryzae type I NRRL21409, 48 h

Structure (SMILES): O=C(O)c1ccc(-n2nc(-c3ccccc3O)nc2-c2ccccc2O)cc1 [Deferasirox, 4-[3,5-Bis(2-hydroxyphenyl)-1H-1,2,4-triazol-1-yl]-benzoic acid]
- MFC (24 h, R. oryzae HUMC 02, 24 h, read-out: MFC): 12.5 µg/mL (≈ 33.5 µM)
- MIC (24 h, R. oryzae HUMC 02, 24 h, read-out: MIC): 12.5 µg/mL (≈ 33.5 µM)
- MFC (24 h, R. oryzae pyr17 pyrG−/−, 24 h, read-out: MFC): 0.78 µg/mL (≈ 2.09 µM)
- MIC (24 h, R. oryzae pyr17 pyrG−/−, 24 h, read-out: MIC): 0.78 µg/mL (≈ 2.09 µM)
- MFC (24 h, R. orzae type II 10206, 24 h, read-out: MFC): 3.12 µg/mL (≈ 8.36 µM)
- MIC (24 h, R. orzae type II 10206, 24 h, read-out: MIC): 3.12 µg/mL (≈ 8.36 µM)
- MFC (48 h, R. oryzae 99-133, 48 h, read-out: MFC): 6.25 µg/mL (≈ 16.7 µM)
- MIC (48 h, R. oryzae 99-133, 48 h, read-out: MIC): 1.56 µg/mL (≈ 4.18 µM)
- MFC (48 h, R. oryzae 99-880, 48 h, read-out: MFC): 3.12 µg/mL (≈ 8.36 µM)
- MIC (48 h, R. oryzae 99-880, 48 h, read-out: MIC): 3.12 µg/mL (≈ 8.36 µM)
- MFC (48 h, R. oryzae 99-892, 48 h, read-out: MFC): 1.56 µg/mL (≈ 4.18 µM)
- MIC (48 h, R. oryzae 99-892, 48 h, read-out: MIC): 1.56 µg/mL (≈ 4.18 µM)
- MFC (48 h, R. oryzae 729-02, 48 h, read-out: MFC): 6.25 µg/mL (≈ 16.7 µM)
- MIC (48 h, R. oryzae 729-02, 48 h, read-out: MIC): 6.25 µg/mL (≈ 16.7 µM)
- MFC (48 h, R. oryzae HUMC 02, 48 h, read-out: MFC): 1.56 µg/mL (≈ 4.18 µM)
- MIC (48 h, R. oryzae HUMC 02, 48 h, read-out: MIC): 1.56 µg/mL (≈ 4.18 µM)
- MFC (48 h, R. oryzae pyr17 pyrG−/−, 48 h, read-out: MFC): 0.78 µg/mL (≈ 2.09 µM)
- MIC (48 h, R. oryzae pyr17 pyrG−/−, 48 h, read-out: MIC): 0.78 µg/mL (≈ 2.09 µM)
- MFC (48 h, R. orzae type II 10206, 48 h, read-out: MFC): 3.12 µg/mL (≈ 8.36 µM)
- MIC (48 h, R. orzae type II 10206, 48 h, read-out: MIC): 3.12 µg/mL (≈ 8.36 µM)
- MFC [1]: 6.25 µg/mL (≈ 16.7 µM)
- MIC [1]: 6.15 µg/mL (≈ 16.5 µM)
- MFC [2]: 6.25 µg/mL (≈ 16.7 µM)
- MIC [2]: 1.56 µg/mL (≈ 4.18 µM)
- MFC (NRRL10206, 24 h, R. oryzae type I NRRL 10206, 24 h, read-out: MFC): 3.12 µg/mL (≈ 8.36 µM)
- MIC (NRRL10206, 24 h, R. oryzae type I NRRL 10206, 24 h, read-out: MIC): 3.12 µg/mL (≈ 8.36 µM)
- MFC (NRRL10206, 48 h, R. oryzae type I NRRL 10206, 48 h, read-out: MFC): 3.12 µg/mL (≈ 8.36 µM)
- MIC (NRRL10206, 48 h, R. oryzae type I NRRL 10206, 48 h, read-out: MIC): 3.12 µg/mL (≈ 8.36 µM)
- MFC (NRRL11823, 24 h, R. oryzae type I NRRL11823, 24 h, read-out: MFC): 3.12 µg/mL (≈ 8.36 µM)
- MIC (NRRL11823, 24 h, R. oryzae type I NRRL11823, 24 h, read-out: MIC): 3.12 µg/mL (≈ 8.36 µM)
- MFC (NRRL11823, 48 h, R. oryzae type I NRRL11823, 48 h, read-out: MFC): 6.25 µg/mL (≈ 16.7 µM)
- MIC (NRRL11823, 48 h, R. oryzae type I NRRL11823, 48 h, read-out: MIC): 6.25 µg/mL (≈ 16.7 µM)
- MFC (NRRL13142, 24 h, R. oryzae type I NRRL13142, 24 h, read-out: MFC): 6.25 µg/mL (≈ 16.7 µM)
- MIC (NRRL13142, 24 h, R. oryzae type I NRRL13142, 24 h, read-out: MIC): 6.25 µg/mL (≈ 16.7 µM)
- MFC (NRRL13142, 48 h, R. oryzae type I NRRL13142, 48 h, read-out: MFC): 3.12 µg/mL (≈ 8.36 µM)
- MIC (NRRL13142, 48 h, R. oryzae type I NRRL13142, 48 h, read-out: MIC): 3.12 µg/mL (≈ 8.36 µM)
- MFC (NRRL13440, 24 h, R. oryzae type 1 NRRL13440, 24 h, read-out: MFC): 12.5 µg/mL (≈ 33.5 µM)
- MIC (NRRL13440, 24 h, R. oryzae type 1 NRRL13440, 24 h, read-out: MIC): 1.56 µg/mL (≈ 4.18 µM)
- MFC (NRRL13440, 48 h, R. oryzae type 1 NRRL13440, 48 h, read-out: MFC): 12.5 µg/mL (≈ 33.5 µM)
- MIC (NRRL13440, 48 h, R. oryzae type 1 NRRL13440, 48 h, read-out: MIC): 1.56 µg/mL (≈ 4.18 µM)
- MFC (NRRL13533, 24 h, R. oryzae type I NRRL13533, 24 h, read-out: MFC): 6.25 µg/mL (≈ 16.7 µM)
- MIC (NRRL13533, 24 h, R. oryzae type I NRRL13533, 24 h, read-out: MIC): 1.56 µg/mL (≈ 4.18 µM)
- MFC (NRRL13533, 48 h, R. oryzae type I NRRL13533, 48 h, read-out: MFC): 6.25 µg/mL (≈ 16.7 µM)
- MIC (NRRL13533, 48 h, R. oryzae type I NRRL13533, 48 h, read-out: MIC): 1.56 µg/mL (≈ 4.18 µM)
- MFC (NRRL18148, 24 h, R. oryzae type II NRRL 18148, 24 h, read-out: MFC): 0.78 µg/mL (≈ 2.09 µM)
- MIC (NRRL18148, 24 h, R. oryzae type II NRRL 18148, 24 h, read-out: MIC): 0.78 µg/mL (≈ 2.09 µM)
- MFC (NRRL18148, 48 h, R. oryzae type II NRRL 18148, 48 h, read-out: MFC): 0.78 µg/mL (≈ 2.09 µM)
- MIC (NRRL18148, 48 h, R. oryzae type II NRRL 18148, 48 h, read-out: MIC): 0.78 µg/mL (≈ 2.09 µM)
- MFC (NRRL21251, 24 h, R. oryzae type I NRRL 21251, 24 h, read-out: MFC): 6.25 µg/mL (≈ 16.7 µM)
- MIC (NRRL21251, 24 h, R. oryzae type I NRRL 21251, 24 h, read-out: MIC): 3.12 µg/mL (≈ 8.36 µM)
- MFC (NRRL21251, 48 h, R. oryzae type I NRRL 21251, 48 h, read-out: MFC): 6.25 µg/mL (≈ 16.7 µM)
- MIC (NRRL21251, 48 h, R. oryzae type I NRRL 21251, 48 h, read-out: MIC): 6.25 µg/mL (≈ 16.7 µM)
- MFC (NRRL21396, 24 h, R. oryzae type I NRRL21396, 24 h, read-out: MFC): 12.5 µg/mL (≈ 33.5 µM)
- MIC (NRRL21396, 24 h, R. oryzae type I NRRL21396, 24 h, read-out: MIC): 12.5 µg/mL (≈ 33.5 µM)
- MFC (NRRL21396, 48 h, R. oryzae type I NRRL21396, 48 h, read-out: MFC): 6.25 µg/mL (≈ 16.7 µM)
- MIC (NRRL21396, 48 h, R. oryzae type I NRRL21396, 48 h, read-out: MIC): 1.56 µg/mL (≈ 4.18 µM)
- MFC [3]: 1.56 µg/mL (≈ 4.18 µM)
- MIC [3]: 1.56 µg/mL (≈ 4.18 µM)
- MFC (NRRL21446, 24 h, R. oryzae type II NRRL 21446, 24 h, read-out: MFC): 12.5 µg/mL (≈ 33.5 µM)
- MIC (NRRL21446, 24 h, R. oryzae type II NRRL 21446, 24 h, read-out: MIC): 6.25 µg/mL (≈ 16.7 µM)
- MFC (NRRL21446, 48 h, R. oryzae type II NRRL 21446, 48 h, read-out: MFC): 6.25 µg/mL (≈ 16.7 µM)
- MIC (NRRL21446, 48 h, R. oryzae type II NRRL 21446, 48 h, read-out: MIC): 6.25 µg/mL (≈ 16.7 µM)
- MFC (NRRL21447, 24 h, R. oryzae type II NRRL 21447, 24 h, read-out: MFC): 12.5 µg/mL (≈ 33.5 µM)
- MIC (NRRL21447, 24 h, R. oryzae type II NRRL 21447, 24 h, read-out: MIC): 6.25 µg/mL (≈ 16.7 µM)
- MFC (NRRL21447, 48 h, R. oryzae type II NRRL 21447, 48 h, read-out: MFC): 6.25 µg/mL (≈ 16.7 µM)
- MIC (NRRL21447, 48 h, R. oryzae type II NRRL 21447, 48 h, read-out: MIC): 6.25 µg/mL (≈ 16.7 µM)
- MFC (NRRL21477, 24 h, R. oryzae type II NRRL 21477, 24 h, read-out: MFC): 1.56 µg/mL (≈ 4.18 µM)
- MIC (NRRL21477, 24 h, R. oryzae type II NRRL 21477, 24 h, read-out: MIC): 1.56 µg/mL (≈ 4.18 µM)
- MFC (NRRL21477, 48 h, R. oryzae type II NRRL 21477, 48 h, read-out: MFC): 1.56 µg/mL (≈ 4.18 µM)
- MIC (NRRL21477, 48 h, R. oryzae type II NRRL 21477, 48 h, read-out: MIC): 1.56 µg/mL (≈ 4.18 µM)
- MFC (NRRL21628, 24 h, R. oryzae type II NRRL 21628, 24 h, read-out: MFC): 0.78 µg/mL (≈ 2.09 µM)
- MIC (NRRL21628, 24 h, R. oryzae type II NRRL 21628, 24 h, read-out: MIC): 0.78 µg/mL (≈ 2.09 µM)
- MFC (NRRL21628, 48 h, R. oryzae type II NRRL 21628, 48 h, read-out: MFC): 0.78 µg/mL (≈ 2.09 µM)
- MIC (NRRL21628, 48 h, R. oryzae type II NRRL 21628, 48 h, read-out: MIC): 0.78 µg/mL (≈ 2.09 µM)
- MFC (NRRL21789, 24 h, R. oryzae type II NRRL 21789, 24 h, read-out: MFC): 0.39 µg/mL (≈ 1.04 µM)
- MIC (NRRL21789, 24 h, R. oryzae type II NRRL 21789, 24 h, read-out: MIC): 0.39 µg/mL (≈ 1.04 µM)
- MFC (NRRL21789, 48 h, R. oryzae type II NRRL 21789, 48 h, read-out: MFC): 0.39 µg/mL (≈ 1.04 µM)
- MIC (NRRL21789, 48 h, R. oryzae type II NRRL 21789, 48 h, read-out: MIC): 0.39 µg/mL (≈ 1.04 µM)
- MIC90 (24 h): 12.5 µg/mL (≈ 33.5 µM)
- MIC90 (48 h): 6.25 µg/mL (≈ 16.7 µM)

Source: patent US20100129434A1, “COMPOSITIONS AND METHODS FOR THE TREATMENT OF MUCORMYCOSIS AND OTHER FUNGAL DISEASES” (priority 2006, published 2010)
